Experimental data published in patent publication US20250263370A1 (Tay Therapeutics Limited, priority 2022, published 2025).
pIC50: −log10 of the molar value. Like-named read-outs stand apart in the source and are kept apart here.

Assays:
[1] = Plasma stability assay, rat plasma; format: in vitro ADME; conditions: Method 2 (10 μM)
Experimental: From stock solution of compound in 10 mM DMSO, a working solution of 1 mM is prepared by diluting the compound in DMSO. To 398 μL of plasma pre-warmed at 37° C. for 15 minutes), 2 μL of working solution of compound is added, resulting in a final concentration of 5 μM (0.5% DMSO) for the compound. The sample is then incubated at 37° C. Aliquot is withdrawn at specified time-points (0, 15, 30, 60 and 120 mins). The reaction is stopped by addition of 450 μL cold acetonitrile containing internal standard (IS). […] Aliquots of the supernatant is analysed using LC-MS/MS. The percent remaining of the compound at each time point is calculated with respect to the control sample (0 min time-point).
A working solution of compound (500 μM) is prepared in DMSO (100%). To 735 μL of plasma, 15 μL of working solution of compound is added—resulting in a final concentration of 10 μM (2% DMSO) for the compound. The sample is then incubated at 37° C. Aliquot is withdrawn at time-points—0, 15, 30, 60, 90 and 120 mins. The reaction is stopped by using chilled acetonitrile containing internal standard (IS). The samples are centrifuged and the supernatants analyzed using LC-MS/MS. The percent remaining of the compound at each time point is calculated with respect to the control sample (0 min time-point).

[2] = Intrinsic clearance in liver microsomes, rat; format: in vitro ADME; conditions: rat, liver microsomes, pH 7.4, rat liver microsomes, read-out: Half-Life (T1/2) (min), Rat
Experimental: From stock solution of compound on 10 mM DMSO, a working solution of 0.1 mM is prepared by diluting the compound in DMSO. 6.25 μL of a 20 mg/mL solution of microsomes in PBS pH 7.4 buffer is added to 216.25 μL PBS pH 7.4 buffer (final microsome concentration—0.5 mg/mL). 25 μL of 10 mM solution of NADPH in PBS pH 7.4 buffer is added to the incubations (final NADPH concentration—1 mM). The mixture is pre-warmed to 37° C. for 10 minutes. 2.5 μL of test compound working solution is added (final compound concentration—1 μM with 1% DMSO). Aliquots of 30 μL are taken from the reaction solution at 0.5, 5, 15, 30 and 60 minutes. The reaction was stopped by the addition of 5 volumes of cold acetonitrile with IS (100 nM alprazolam, 200 nM caffeine and 100 nM tolbutamide). Samples were centrifuged at 3, 220 g for 40 minutes. Aliquots of 100 μL of the supernatant are mixed with 100 μL of ultra-pure H2O and used for LC-MS/MS analysis. The percent compound remaining at each time point is calculated with respect to that of the 0.5 min sample. The data are analysed to calculate half-life. Control experiments are run without NADPH and blank samples are prepared using DMSO without the test compound.
A 50 mM stock solution (in DMSO) is prepared for the compound. From the stock solution, a working solution of 0.5 mM is prepared by diluting the compound in DMSO. This concentration of working solution is prepared considering a final concentration of 1 uM with 0.1% DMSO. The compound (1 μL of working solution) is spiked in PBS with pH 7.4 ([…]) at a concentration of 1 μM. Subsequently, 110 μL of 10 mM NADPH is added (as a co-factor). The sample is incubated at 37° C. for 15 min. Following this, pre-warmed liver microsomes (27.5 μL; final protein conc. 0.5 mg/mL) are added. The samples are then incubated at 37° C. Aliquots of samples are withdrawn at 0, 5, 15, 30, 45 and 60 min. The reaction is stopped by using chilled acetonitrile containing internal standard. The samples are centrifuged, and the supernatants analysed by LC-MS/MS. The percent compound remaining at each time point is calculated with respect to that of the 0 min sample. The data are then analysed to calculate half-life and intrinsic clearance (CLint). Control experiments are run without NADPH and blank samples are prepared using DMSO without the test compound.

[3] = target: BRD4 BD2 (Homo sapiens (Human), UniProt O60885); test: NanoBRET bromodomain assay, NanoLuc-BRD4-BD2 fusion in HEK293 cells; conditions: for Fold selectivity: IC50 for BRD4 BD1 divided by IC50 for BRD4 BD2, qualitative if an IC50 is at the upper limit; for pIC50: BRD4 BD2 (IC50), NanoBRET, HEK293 cells, top concentration 10 μM;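 as to all read-outs here: tracer displacement BRET read in transfected cells after 2 h compound exposure at 37 °C, signal in milliBRET units corrected against no-tracer background wells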
[4] = Sprague-Dawley rat pharmacokinetics, IV and PO cassette dosing; format: in vivo; conditions: Method 1; for IV T1/2: IV 1 mg/kg; for PO F: PO 5 mg/kg
Experimental: Compounds were formulated in 5% DMSO, 40% PEG-400, 55% Milli-Q water at a concentration of 0.2 mg/mL for IV and at 0.5 mg/mL for PO. Two male Sprague-Dawley rats per arm were dosed with up to 5 compounds in cassette mode, which each compound being dosed at 1 mg/kg IV and 5 mg/kg PO. Blood was sampled at various timepoints and plasma isolated. 50 μL of plasma with 5 μL of blank Sprague-Dawley rat plasma were added to 200 μL of acetonitrile containing IS mixture. The samples were vortexed for 30 s. After centrifugation at 4 degrees Celsius, 3900 rpm for 15 min, the supernatant was diluted 3 times with water. 20 μL of diluted supernatant was injected into the LC/MS/MS system for quantitative analysis and concentration of analyte determined by comparison with matrix matched standard curve. WinNonlin (Phoenix™, version 8.3) or other similar software may be used for pharmacokinetic calculations.

[5] = target: BRD4 BD1 (Homo sapiens (Human), UniProt O60885); test: NanoBRET bromodomain assay, NanoLuc-BRD4-BD1 fusion in HEK293 cells; format: cell-based; conditions: top concentration 10 μM

Plasma Stability (% remaining at 120 minutes), Rat [1] | half-life at 1 μM ([2]; Method 1) | Fold selectivity [3] | half-life at 1 μM ([2]; Method 2) | IV T1/2 [4] | PO F [4] | pIC50 [5] | pIC50 [3] | Compound
89% | > 60 min | XX (Fold >50 and ≤200) |  |  |  |  |  | CNC(=O)c1[nH]c(C(=O)NC2CCC(O)CC2)cc1OC(C)c1ccc(Cl)cc1 (single isomer, unassigned) [Example 29, 3-(1-(4-chlorophenyl)ethoxy)-N^5-(4-hydroxycyclohexyl)-N^2-methyl-1H-pyrrole-2,5-dicarboxamide]
88% |  | XX (Fold >50 and ≤200) | > 60 min |  |  |  |  | CNC(=O)c1[nH]c(C(=O)N[C@H]2CC[C@H](O)CC2)cc1OC(C)c1ccccc1F (single isomer, unassigned) [Example 45]
20% |  | XX (Fold >50 and ≤200) |  | 0.5 h | 58% | ≤ 5.00 | 6.70 to 7.30 | CNC(=O)c1[nH]c(C(=O)NC2CCC2)cc1OC(C)c1ccccc1F (single isomer, unassigned) [Example 43, N^5-cyclobutyl-3-(1-(2-fluorophenyl)ethoxy)-N^2-methyl-1H-pyrrole-2,5-dicarboxamide]
 |  | XXX (Fold >200) |  | 1.1 h | 30% | ≤ 5.00 | > 7.30 | CCNC(=O)c1cc(OC(C)c2ccc(Cl)cc2)c(C(=O)NC)[nH]1 (single isomer, unassigned) [Example 18, 3-(1-(4-chlorophenyl)ethoxy)-N^5-ethyl-N^2-methyl-1H-pyrrole-2,5-dicarboxamide]
 | > 60 min | XX (Fold >50 and ≤200) |  | 1.4 h | 66% | ≤ 5.00 | 6.70 to 7.30 | CNC(=O)c1[nH]c(C(=O)N[C@H]2CC[C@H](O)CC2)cc1OC(C)c1ccc(Cl)cc1F (single isomer, unassigned) [Example 38, 3-(1-(4-chloro-2-fluorophenyl)ethoxy)-N^5-(trans-4-hydroxycyclohexyl)-N^2-methyl-1H-pyrrole-2,5-dicarboxamide]
 |  | XX (Fold >50 and ≤200) |  | 0.4 h | 46% | ≤ 5.00 | 6.70 to 7.30 | CCNC(=O)c1cc(OC(C)c2ccccc2F)c(C(=O)NC)[nH]1 (single isomer, unassigned) [Example 20, N^5-ethyl-3-(1-(2-fluorophenyl)ethoxy)-N^2-methyl-1H-pyrrole-2,5-dicarboxamide]
 | > 60 min | X (Fold >2 and ≤50) |  | 0.3 h | 69% | ≤ 5.00 | 6.00 to 6.70 | CCNC(=O)c1cc(OC(C)c2ccc(Cl)cc2F)c(C(=O)NC)[nH]1 (single isomer, unassigned) [Example 41, 3-(1-(4-chloro-2-fluorophenyl)ethoxy)-N^5-ethyl-N^2-methyl-1H-pyrrole-2,5-dicarboxamide]
 | > 60 min | X (Fold >2 and ≤50) |  |  |  | ≤ 5.00 | 6.00 to 6.70 | CCNC(=O)c1cc(OC(C)c2ccccc2)c(C(=O)NC)[nH]1 (racemic) [Example 95, N^5-ethyl-N^2-methyl-3-(1-phenylethoxy)-1H-pyrrole-2,5-dicarboxamide]
 |  | X (Fold >2 and ≤50) |  |  |  | ≤ 5.00 | 6.00 to 6.70 | CNC(=O)c1[nH]c(-c2cc(C)nc(C)c2)cc1O[C@@H](C)c1ccccc1 [Example 90, (S)-5-(2,6-dimethylpyridin-4-yl)-N-methyl-3-(1-phenylethoxy)-1H-pyrrole-2-carboxamide]
 |  | X (Fold >2 and ≤50) |  |  |  | ≤ 5.00 | 5.00 to 6.00 | CNC(=O)c1[nH]c(-c2ccccc2)cc1O[C@@H](C)c1ccccc1 [Example 84, (S)-N-methyl-5-phenyl-3-(1-phenylethoxy)-1H-pyrrole-2-carboxamide]
 |  | XXX (Fold >200) |  |  |  | ≤ 5.00 | > 7.30 | CNC(=O)c1[nH]c(-c2cnn(C(F)(F)F)c2)cc1O[C@@H](C)c1ccccc1 [Example 83, (S)-N-methyl-3-(1-phenylethoxy)-5-(1-(trifluoromethyl)-1H-pyrazol-4-yl)-1H-pyrrole-2-carboxamide]
 |  | — (Fold ≥0 and ≤2) |  |  |  | ≤ 5.00 | < 5.00 | CCNC(=O)c1cc(OC(C)c2c(C)cccc2C)c(C(=O)NC)[nH]1 (single isomer, unassigned) [Example 65, 3-(1-(2,6-dimethylphenyl)ethoxy)-N^5-ethyl-N^2-methyl-1H-pyrrole-2,5-dicarboxamide]
 |  | X (Fold >2 and ≤50) |  |  |  | ≤ 5.00 | 6.00 to 6.70 | CNC(=O)c1[nH]c(C(=O)NCC(F)(F)F)cc1O[C@@H](C)c1ccccc1F [Example 57, (S)-3-(1-(2-fluorophenyl)ethoxy)-N^2-methyl-N^5-(2,2,2-trifluoroethyl)-1H-pyrrole-2,5-dicarboxamide]
 |  | XX (Fold >50 and ≤200) |  |  |  | ≤ 5.00 | 6.70 to 7.30 | CNC(=O)c1[nH]c(-c2cc(C)nn2C)cc1O[C@@H](C)c1ccccc1 [Example 81, (S)-5-(1,3-dimethyl-1H-pyrazol-5-yl)-N-methyl-3-(1-phenylethoxy)-1H-pyrrole-2-carboxamide]
 |  | — (Fold ≥0 and ≤2) |  |  |  | ≤ 5.00 | < 5.00 | CCNC(=O)c1cc(OC(C)c2ccc(Cl)cc2F)c(C(=O)NC)[nH]1 (single isomer, unassigned) [Example 42, 3-(1-(4-chloro-2-fluorophenyl)ethoxy)-N^5-ethyl-N^2-methyl-1H-pyrrole-2,5-dicarboxamide]
 |  | XX (Fold >50 and ≤200) |  |  |  | ≤ 5.00 | 6.70 to 7.30 | CNC(=O)c1[nH]c(-c2cnn(C)c2)cc1O[C@@H](C)c1ccccc1 [Example 88, (S)-N-methyl-5-(1-methyl-1H-pyrazol-4-yl)-3-(1-phenylethoxy)-1H-pyrrole-2-carboxamide]

Compound | Plasma Stability (% remaining at 120 minutes), Rat [1] | half-life at 1 μM ([2]; Method 1) | Fold selectivity [3] | half-life at 1 μM ([2]; Method 2) | IV T1/2 [4] | PO F [4] | pIC50 [5] | pIC50 [3]
CCCC(Oc1cc(C(=O)NCC)[nH]c1C(=O)NC)c1ccccc1 (racemic) [Example 16, N^5-ethyl-N^2-methyl-3-(1-phenylbutoxy)-1H-pyrrole-2,5-dicarboxamide] |  |  | X (Fold >2 and ≤50) |  |  |  | ≤ 5.00 | 6.00 to 6.70
